Results: US20230285417A1, “FORMULATIONS OF 19-NOR C3,3-DISUBSTITUTED C21-N-PYRAZOLYL STEROID AND METHODS OF USE THEREOF” (priority 2020, published 2023)

How the values were obtained:
Format in all cases: physicochemical
[1] = Solubility of the compound of formula (I) in aqueous media (water, pH 1.2 simulated gastric fluid, FaSSIF)
Source text: (§1) The compound of formula (I) belongs in the high permeability, poor solubility drug classification (BCS 2) described in the Biopharmaceutics Classification System (BCS). In the improved widely accepted Developability Classification System (DCS) discussed by Butler and Dressman, the high permeability low solubility category is further divided into two classifications. Specifically, the ratio of the dose to the solubility of the drug in FaSSIF can be used to predict the extent of human absorption. Class 2a describes compounds that have good permeability and poor solubility with a smaller dose to solubility ratio. Class 2b describes compounds that have a higher dose to solubility ratio and likely will be incompletely absorbed unless the drug is formulated in an already solubilized form, and therefore might present a major challenge to the formulator. […] That is, even for a dose of 10 mg about only 1.2% of the dose of the drug may dissolve in a glass of water or FaSSIF. For Class 2b compounds the system predicts that particle reduction should have no impact on bioavailability. Martinez and Amidon offer: “In the case of solubility-limited absorption particle size exerts minimal effect on the fraction of drug absorbed. […]

[2] = Biopharmaceutics Classification System (BCS) classification; details: high permeability, poor solubility
Source text: as §1

[3] = Particle size distribution by laser diffraction (Malvern Mastersizer 2000); details: for D10 / D50 / D90: lot of micronized Form C of Compound 1 used in capsules of Table 16
Experimental: The particle size distribution of Compound 1 was measured using a laser diffraction method. A sample of Compound 1 was either dispersed in water or wetted and dispersed in 0.2% w/v Tween 80 in water to a final concentration spanning approximately 2.5 to 60 mg/mL. Using a Malvern Mastersizer 2000 with a Hydro 2000S sample dispersion unit the obscuration was adjusted to between 10 and 30%. The stir speed was adjusted to 2250-2500 rpm, pre-measurement delay to approximately 30 s, sample measurement time to around 10-15 s, background measurement time to around 10-15 s and the particle shape assumed to be irregular. The samples were at a concentration between 0.0032-0.0044% vol and had specific surface area between 1.65 and 2.10 m2/g, a surface weighted mean between 2.87 and 3.64 μm, and a volume weighed mean between 3.62 and 4.67 μm. The measurements were obtained using the Mie scattering model (material refractive index=1.520, dispersant refractive index=1.330, absorption=0.001 or 0.1) with normal sensitivity.
Representative particle size distribution data for lots of un-micronized and micronized Form C of Compound 1 are shown in Table 7. In addition, representative particle size distribution for micronized Form A of Compound 1 is also included in Table 7. FIG. 4A, FIG. 4B and FIG. 4C also contain particle size distribution profiles for three representative lots of micronized Form C of Compound 1. FIG. 13A and FIG. 13B contain particle size distribution profiles for micronized and un-micronized Form C of Compound 1a. FIG. 14A and FIG. 14B contain particle size distribution profiles for micronized and un-micronized Form C of Compound 1b. FIG. 15A and FIG. 15B contain particle size distribution profiles for micronized and un-micronized Form C of Compound 1c. FIG. 16A and FIG. 16B contain particle size distribution profiles for micronized and un-micronized Form C of Compound 1d.

[4] = lot used in Composition 30, 8 kg blend batch, 20 mg dose strength
[5] = lot used in Composition 30, 12 kg blend batch, 30 mg dose strength
[6] = lot used in Composition 30, 34.7 kg blend batch, 20 mg dose strength
[7] = lot used in Composition 30, 52 kg blend batch, 30 mg dose strength

## C[C@@]1(O)CC[C@H]2[C@H](CC[C@@H]3[C@@H]2CC[C@]2(C)[C@@H](C(=O)Cn4cc(C#N)cn4)CC[C@@H]32)C1 [Compound 1, 1-(2-((3R,5R,8R,9R,10S,13S,14S,17S)-3-hydroxy-3,13-dimethylhexadecahydro-1H-cyclopenta[a]phenanthren-17-yl)-2-oxoethyl)-1H-pyrazole-4-carbonitrile]
[1]; 10 mg dose
  % of the dose that may dissolve in a glass of water or FaSSIF: ~1.2%
[1]; water, pH 1.2 simulated gastric fluid, FaSSIF
  solubility in aqueous media: practically insoluble
[2]
  drug classification, Biopharmaceutics Classification System (BCS): BCS 2

## C[C@@]1(O)CC[C@H]2[C@H](CC[C@@H]3[C@@H]2CC[C@]2(C)[C@@H](C(=O)Cn4cc(C#N)cn4)CC[C@@H]32)C1 [Lot A]
[3]; listed as A
  D10: 1.7 μm
  D50: 3.3 μm
  D90: 6.8 μm

## C[C@@]1(O)CC[C@H]2[C@H](CC[C@@H]3[C@@H]2CC[C@]2(C)[C@@H](C(=O)Cn4cc(C#N)cn4)CC[C@@H]32)C1 [Lot B]
[3]; listed as B
  D10: 1.9 μm
  D50: 3.5 μm
  D90: 6.6 μm

## C[C@@]1(O)CC[C@H]2[C@H](CC[C@@H]3[C@@H]2CC[C@]2(C)[C@@H](C(=O)Cn4cc(C#N)cn4)CC[C@@H]32)C1 [Lot C]
[3]; listed as C
  D10: 2.1 μm
  D50: 4.0 μm
  D90: 7.7 μm

## C[C@@]1(O)CC[C@H]2[C@H](CC[C@@H]3[C@@H]2CC[C@]2(C)[C@@H](C(=O)Cn4cc(C#N)cn4)CC[C@@H]32)C1 [Micronized Form C of Compound 1]
[3]; [4]
  Particle Size Distribution D10: 1.7
  Particle Size Distribution D50: 3.2
  Particle Size Distribution D90: 6.1
[3]; [5]
  Particle Size Distribution D10: 1.7
  Particle Size Distribution D50: 3.2
  Particle Size Distribution D90: 6.1
[3]; [6]
  Particle Size Distribution D10: 1.8
  Particle Size Distribution D50: 3.3
  Particle Size Distribution D90: 6.5
[3]; [7]
  Particle Size Distribution D10: 2.1
  Particle Size Distribution D50: 4.1
  Particle Size Distribution D90: 8.0
